According to patent US20210113519A1, “Compositions and Methods for Modulating Permeability of Biological Barriers” (Carnegie Mellon University, priority 2018, published 2021):
Entries after “also recorded” stand apart in the source; their conditions may differ.

Assays:
Caco-2 monolayers = assay: Calcein permeability assay through Caco-2 monolayers; assay type: cell-based, human; settings: for calcein permeability, known phenolic compounds from strawberry: 1 mg/mL; for calcein permeability, anthocyanidins: applied at 0.33 mg/ml, vs untreated control
Procedure: (§1) Caco-2 Cell Monolayers: Caco-2 cells were seeded in Basal Seeding Medium (BSM) on a collagen-coated, 24-Multiwell Insert […]® Plate at a concentration of 2×10^5 cells per well. The plate was incubated at 37° C. for one to two days. On the third day, the BSM was replaced with Enterocyte Differentiation Medium (EDM). The plate was then incubated one to two more days at 37° C. to allow complete formation of differentiated monolayers.
Permeability Assays: The paracellular diffusion markers were applied at 0.5 mM (calcein) or 0.1 mM (4 kDa FITC-Dextran), dissolved in EDM with the treatment extracts, to the apical side of fully-formed monolayers (TEER>200 Ω·cm^2). Fresh EDM with the markers was used as a negative control. After one hour, media in the basal chambers was sampled and examined for fluorescence at 495/515 nm. Application of calibration curves yielded an amount of mass transferred across each monolayer, which was used in the permeability equation Papp=ΔM/CaAΔt, where Papp is the apparent permeability through the monolayer, ΔM is the marker mass in the basal compartment, Ca is the apical marker concentration, A is the monolayer area, and Δt is the time between samples. Permeability measurements are expressed as the ratio of monolayer permeability at 3 hours after treatment addition to permeability before treatment addition, normalized to any change in negative control monolayers during that time.

intestinal epithelium = assay: Insulin delivery study: blood glucose in mice after oral enhancer and intestinal insulin injection; assay type: in vivo
Procedure: For insulin delivery studies, mice were orally gavaged with PBS (for control) or strawberry treatments (600 mg/kg STRB PPh or 40 mg/kg pelargonidin). One hour later, their initial blood sugar was measured and the animals were placed under anesthesia. Their intestines were surgically exposed, and insulin was injected at the predetermined dose (1 unit per kg body weight unless otherwise specified) into the duodenum of the small intestine, avoiding digestion in the stomach. The mice were closed and secured with tissue adhesive, then kept under anesthesia as their blood sugar levels were monitored each hour for five hours. For comparison to the current standard of insulin delivery, subcutaneous injections were given at 1 U/kg to additional mice, into the scruff on their necks. To determine areas above the curve for each mouse, trapezoidal integration was used to sum the area between known points on the blood glucose curve and the starting blood glucose value for the individual animal.

[1] = tested on: Caco-2 intestinal epithelial cell monolayers; assay: TEER (transepithelial electrical resistance) assay on Caco-2 monolayers; assay type: cell-based, human
Procedure: as §1
TEERAssay: All TEER (transepithelial electrical resistance) values were measured using a voltohmmeter. Between each TEER measurement, the plate was incubated at 37° C. for a minimum of fifteen minutes to allow the cells to rest. To ensure that all the wells contained fully formed Caco-2 monolayers (>200 Ω·cm^2), initial TEER values were measured prior to treatment exposure. After adding the extracts to each well, TEER values were measured at defined intervals for a total of three hours. The treatments were then aspirated, and the cells rinsed with PBS before refilling the wells with fresh EDM. The plates were then left in the incubator at 37° C. for 24 hours, when recovery TEER values were measured.

intestinal barrier = assay: Oral FITC-DX4 (4 kDa dextran) absorption in mice after oral enhancer; assay type: in vivo; settings: pelargonidin 40 mg/kg oral, then FITC-DX4 600 mg/kg oral
Procedure: Examination of strawberry extract efficacy in vivo: For dextran efficacy studies, fasted mice were orally gavaged with 600 mg/kg STRB PPh solutions or 40 mg/kg pelargonidin solutions, then gavaged three hours later with 600 mg/kg FITC-DX4. Three hours after the dextran gavage, blood was collected and centrifuged. The serum was removed and examined for FITC concentration by reading for fluorescence on the plate reader and comparing to a unique calibration curve for each experiment. For larger macromolecule studies, 40 kDa dextran (FITC-DX40) was substituted at the same 600 mg/kg concentration.

[2] = pelargonidin between 0.33 and 1.00 mg/mL

## OC[C@H]1O[C@@H](Oc2cc3c(O)cc(O)cc3[o+]c2-c2ccc(O)cc2)[C@H](O)[C@@H](O)[C@@H]1O [callistephin, reference compound]
Caco-2 monolayers
  calcein permeability, known phenolic compounds from strawberry: not an effective permeation enhancer

## COc1cc(-c2[o+]c3cc(O)cc(O)c3cc2O)cc(OC)c1O.[Cl-] [malvidin]
Caco-2 monolayers
  calcein permeability, anthocyanidins: increase the permeability of calcein; also recorded: statistically significant increases

## Oc1ccc(-c2[o+]c3cc(O)cc(O)c3cc2O)cc1 [pelargonidin]
Intestinal epithelium; pelargonidin 40 mg/kg oral + 1 U/kg intestinal insulin
  duration of hypoglycemia vs 1 U/kg subcutaneous insulin: sustained hypoglycemia several hours longer
Intestinal epithelium; pelargonidin 40 mg/kg oral + 1 U/kg intestinal insulin vs 1 U/kg subcutaneous
  total pharmacodynamic effect (area above the curve) relative to subcutaneous insulin: approximately 1.3 times
Intestinal epithelium; pelargonidin 40 mg/kg oral + 1 U/kg intestinal insulin vs 1 U/kg subcutaneous insulin, AAC
  relative bioactivity value: 130%
Intestinal epithelium; pelargonidin 40 mg/kg oral, one hour later 1 U/kg insulin intestinal injection, vs saline gavage
  blood glucose response to intestinal insulin: substantial reduction in blood glucose; also recorded: sustained reductions in blood glucose levels
[1]; 0.33 mg/ml
  permeabilization and recovery of barrier function: substantial yet reversible permeabilization
[1]; 0.67 mg/ml
  permeabilization and recovery of barrier function: substantial yet reversible permeabilization
[1]; 1 mg/ml
  permeabilization and recovery of barrier function: opened the tight junctions beyond their ability to recover barrier function
[1]; pelargonidin 0.33, 0.67 and 1.00 mg/mL
  recovery of barrier function within 24 hours (TEER): only the two lower concentrations recovered their barrier function
[1]; [2]
  TEER response (opening of tight junctions): dose-dependent opening of the tight junctions
Intestinal barrier
  FITC-DX4 absorption across the intestinal barrier vs saline (PBS) gavage: doubled
Caco-2 monolayers
  calcein permeability, known phenolic compounds from strawberry: effective permeation enhancer; also recorded: significantly increased the permeability of calcein
  calcein permeability, anthocyanidins: increase the permeability of calcein; also recorded: statistically significant increases
Caco-2 monolayers; [2]
  improvement of calcein permeability, dose response: dose dependence was also evident

## COc1cc(-c2[o+]c3cc(O)cc(O)c3cc2O)cc(O)c1O [petunidin]
Caco-2 monolayers
  calcein permeability, anthocyanidins: increase the permeability of calcein; also recorded: statistically significant increases

## insulin: bovine pancreas insulin [reference compound]
Intestinal epithelium; 1 U/kg subcutaneous insulin dose
  blood glucose response to subcutaneous insulin: pronounced but brief response
